Experimental data reported in patent US8372885B2, “Organic compounds and their uses” (Novartis AG, priority 2008, dated 2013).

What follows are compounds tested against T1, P. aeruginosa LpxC (Pseudomonas aeruginosa, UniProt P47205) (assay: biochemical). Details: 1 nM P. aeruginosa LpxC, 30 min pre-incubation, 2 μM UDP-3-O-(R-3-hydroxydecanoyl)-GlcNAc, pH 7.5, room temperature; read-out: IC50 (LpxC inhibitory activity).
T1 construct: made in house
T1 sequence (P47205 1-303): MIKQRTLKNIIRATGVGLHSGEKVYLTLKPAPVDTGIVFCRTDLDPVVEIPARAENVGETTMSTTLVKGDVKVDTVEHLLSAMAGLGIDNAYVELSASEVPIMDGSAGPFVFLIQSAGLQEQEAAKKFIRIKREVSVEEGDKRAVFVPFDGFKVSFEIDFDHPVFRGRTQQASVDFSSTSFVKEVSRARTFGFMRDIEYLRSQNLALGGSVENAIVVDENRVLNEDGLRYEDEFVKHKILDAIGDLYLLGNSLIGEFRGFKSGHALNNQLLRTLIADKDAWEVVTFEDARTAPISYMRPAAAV
From the text: The LC-MS/MS method for quantitation of LpxC product was developed using an Agilent 1200 Capillary HPLC system coupled to an Applied Biosystems MDS Sciex 4000QTRAP mass spectrometer. Both instruments are controlled using the Applied Biosystems MDS Sciex Analyst software. LpxC reaction product (UDP-3-O—(R-3-hydroxyacyl)-glucosamine) was produced by hydrolysis of LpxC substrate catalyzed by P. a. LpxC and purified using reversed phase chromatography on a Phenomenex Luna C18(2) 4.6×50 mm column. An LpxC product calibration curve was generated to evaluate the sensitivity and dynamic range of the LC-MS/MS method. Briefly, compounds are pre-incubated with 1 nM P. aeruginosa LpxC for 30 min. at room temperature. Reactions are initiated by the addition of 2 μM UDP-3-O—(R-3-hydroxydecanoyl)-GlcNAc. Reactions are conducted in a 96-well plate with a total volume of 100 μL in each well containing 50 mM Sodium phosphate pH 7.5, 0.005% Trition X-100 for 20 min at room temperature. After quenching with 1.8% HOAc (10 μL of a 20% HOAc added to each well), reaction mixtures are analyzed using the LC-MS/MS method and peak areas are transformed into product concentration using a LpxC product calibration curve. […] For IC50 determinations, peak areas are converted to percent inhibition in Microsoft Excel. Percent inhibition values are plotted vs. log compound concentration using XLfit. Data is fit to the four-parameter logistic equation using the non-linear regression algorithm in XLfit to return the IC50 and hill slope values.

| Compound | IC50 [nM] |
| --- | --- |
| CC#CCOC1CCC(C(=O)N[C@H](C(=O)NO)[C@@H](C)N)CC1 (single isomer, unassigned) [Example 7] | 380 |
| C[C@@H](N)[C@H](NC(=O)c1ccc(OCC#Cc2ccccc2)cc1)C(=O)NO [Example 17] | 1 |
| C[C@@H](N)[C@H](NC(=O)c1ccc(C#CCOc2ccccc2)cc1)C(=O)NO [Example 18] | 7.6 |
| CCC#CCOc1ccc(C(=O)N[C@H](C(=O)NO)[C@@H](C)N)cc1 [Example 19] | 7.6 |
| CCCC#CCOc1ccc(C(=O)N[C@H](C(=O)NO)[C@@H](C)N)cc1 [Example 23] | 1.5 |
| CCCCCC#CCNc1ccc(C(=O)N[C@@H](CN)C(=O)NO)cn1 [Example 28] | 55.7 |
| C#CCOc1ccc(C(=O)N[C@H](C(=O)NO)[C@@H](C)N)cc1 [Example 29] | 38.9 |
| C[C@@H](N)[C@H](NC(=O)c1ccc(OCCCC#Cc2ccccc2)cc1)C(=O)NO [Example 30] | 35.6 |
| CC#CC(C)Oc1ccc(C(=O)N[C@H](C(=O)NO)[C@@H](C)N)cc1 (stereo partly shown) [Example 31] | 141 |
| CC#CC(C)Oc1ccc(C(=O)N[C@H](C(=O)NO)[C@@H](C)N)cc1 (stereo partly shown) [Example 32] | 231 |
| C[C@@H](N)[C@H](NC(=O)c1ccc(OCC#CC2CC2)cc1)C(=O)NO [Example 34] | 6 |
| COCC#CCOc1ccc(C(=O)N[C@H](C(=O)NO)[C@@H](C)N)cc1 [Example 44] | 56.9 |
| C#C/C=C/COc1ccc(C(=O)N[C@H](C(=O)NO)[C@@H](C)N)cc1 [Example 46] | 5.5 |
| CC(C)=CCC/C(C)=C/COc1ccc(C(=O)N[C@H](C(=O)NO)[C@@H](C)N)cc1 [Example 48] | 10.2 |
| C[C@@H](N)[C@H](NC(=O)c1ccc(OCCC2CC2)cc1)C(=O)NO [Example 49] | 24.6 |
| C[C@@H](N)[C@H](NC(=O)c1ccc(OCCCC2CC2)cc1)C(=O)NO [Example 50] | 13.1 |
| C/C=C/COc1ccc(C(=O)N[C@H](C(=O)NO)[C@@H](C)N)cc1 [Example 57] | 30 |
| C[C@@H](N)[C@H](NC(=O)c1ccc(OCC#CC2CCC2)cc1)C(=O)NO [Example 58] | 6.5 |
| CC(C)=CC#CCOc1ccc(C(=O)N[C@H](C(=O)NO)[C@@H](C)N)cc1 [Example 60] | 8 |
| C[C@@H](N)[C@H](NC(=O)c1ccc(OCC#Cc2ccoc2)cc1)C(=O)NO [Example 61] | 3 |

The next lines start with the values.

| IC50 [nM] | Compound |
| --- | --- |
| 13.7 | CC#CCOc1ccc(C(=O)NC(C(=O)NO)C2(N)CC2)cc1 (stereo not shown) [Example 1, N-(1-(1-aminocyclopropyl)-2-(hydroxyamino)-2-oxoethyl)-4-(but-2-ynyloxy)benzamide] |
| 23 | CC(C)(C)C#CCOc1ccc(C(=O)NC(C(=O)NO)C(C)(C)N)cc1 (stereo not shown) [Example 4, N-(3-amino-1-(hydroxyamino)-3-methyl-1-oxobutan-2-yl)-4-(4,4-dimethylpent-2-ynyloxy)benzamide] |
| 183 | CC(C)(O)C#CCOc1ccc(C(=O)NC(C(=O)NO)C(C)(C)N)cc1 (stereo not shown) [Example 8, N-(3-amino-1-(hydroxyamino)-3-methyl-1-oxobutan-2-yl)-4-(4-hydroxy-4-methylpent-2-ynyloxy)benzamide] |
| 74.5 | CC#CCOc1ccc(C(=O)N[C@H](C(=O)NO)[C@@H](C)N)c(F)c1 [Example 9, N-((1S,2R)-2-Amino-1-hydroxycarbamoyl-propyl)-4-but-2-ynyloxy-2-fluoro-benzamide] |
| 2700 | CC#CCOc1ccc(C(=O)N[C@@H](CCCN)C(=O)NO)cc1 [Example 10, N-((S)-4-Amino-1-hydroxycarbamoyl-butyl)-4-but-2-ynyloxy-benzamide] |
| 1 | CC(C)(N)[C@H](NC(=O)c1ccc(OCC#CC2=CCCC2)cc1)C(=O)NO [Example 11, N-((S)-2-Amino-1-hydroxycarbamoyl-2-methyl-propyl)-4-(3-cyclopent-1-enyl-prop-2-ynyloxy)-benzamide] |
| 2 | CC(C)(N)[C@H](NC(=O)c1ccc(OCC#CC2=CCOCC2)cc1)C(=O)NO [Example 12, N-((S)-2-Amino-1-hydroxycarbamoyl-2-methyl-propyl)-4-[3-(3,6-dihydro-2H-pyran-4-yl)-prop-2-ynyloxy]-benzamide] |
| 2 | CC(C)(N)[C@H](NC(=O)c1ccc(OC/C=C/C#CCCO)cc1)C(=O)NO [Example 15, N-((S)-2-Amino-1-hydroxycarbamoyl-2-methyl-propyl)-4-((E)-7-hydroxy-hept-2-en-4-ynyloxy)-benzamide] |
| 6.5 | CC#CCOc1ccc(C(=O)N[C@H](C(=O)NO)C(C)(C)O)cc1 [Example 20] |
| 1 | CCC#CCOc1ccc(C(=O)NC(C(=O)NO)C(C)(C)N)cc1 (stereo not shown) [Example 21] |
| 0.7 | CC#CCOc1ccc(-c2ccc(C(=O)N[C@H](C(=O)NO)C(C)(C)N)cc2)cc1 [Example 22] |
| 1.4 | C#CC(C)(C)Oc1ccc(C(=O)NC(C(=O)NO)C(C)(C)N)cc1 (stereo not shown) [Example 24] |
| 35.1 | CC#CCCOc1ccc(C(=O)NC(C(=O)NO)C(C)(C)N)cc1 (stereo not shown) [Example 25] |
| 73.3 | CC#CC(C)(C)Oc1ccc(C(=O)N[C@H](C(=O)NO)[C@@H](C)N)cc1 [Example 27] |
| 2.6 | CC#CCOc1ccc(C(=O)N[C@H](C(=O)NO)C(C)(C)N)cc1F [Example 35] |
| 15.9 | CC#CCOc1ccc(C(=O)NC(C(=O)NO)C(C)(C)N)c(F)c1F (stereo not shown) [Example 36] |
| 4 | CCCCOc1ccc(C(=O)N[C@H](C(=O)NO)C(C)(C)N)cc1 [Example 37] |
| 0.4 | CC(C)(N)[C@H](NC(=O)c1ccc(OCC#CC2CC2)cc1)C(=O)NO [Example 38] |

| IC50 [nM] | Compound |
| --- | --- |
| 151 | CC#CCOc1ccc(C(=O)NC(C(=O)NO)C(C)(C)N)cc1OC (stereo not shown) [Example 39] |
| 34.6 | CC#CCOc1c(Cl)cc(C(=O)NC(C(=O)NO)C(C)(C)N)cc1Cl (stereo not shown) [Example 40] |
| 2.1 | C=C/C=C/COc1ccc(C(=O)NC(C(=O)NO)C(C)(C)N)cc1 (stereo not shown) [Example 41] |
| 27.3 | CC#CCNc1ccc(C(=O)N[C@H](C(=O)NO)[C@@H](C)N)cc1 [Example 42] |
| 1 | C=C(C)C#CCOc1ccc(C(=O)N[C@H](C(=O)NO)C(C)(C)N)cc1 [Example 43] |
| 2.2 | CC(C)(N)C(NC(=O)c1ccc(OCC#CC2CCCC2)cc1)C(=O)NO (stereo not shown) [Example 45] |
| 3.7 | CC(C)=CCOc1ccc(C(=O)NC(C(=O)NO)C(C)(C)N)cc1 (stereo not shown) [Example 47] |
| 128 | CC#CCOc1ccc(C(=O)N[C@@H](CN)C(=O)NO)cc1 [Example 51] |
| 4.4 | CC#CCSc1ccc(C(=O)NC(C(=O)NO)C(C)(C)N)cc1 (stereo not shown) [Example 52] |
| 5.5 | CC(C)C#CCOc1ccc(C(=O)N[C@H](C(=O)NO)C(C)(C)N)cc1 [Example 53] |
| 16.7 | CC#CCOc1ccc(C(=O)NC(C(=O)NO)C(C)(C)N)cc1C (stereo not shown) [Example 54] |
| 9.9 | CC#CCOc1ccc(C(=O)NC(C(=O)NO)C(C)(C)N)cc1Cl (stereo not shown) [Example 55] |
| 4.1 | CC#CCOc1c(F)cc(C(=O)NC(C(=O)NO)C(C)(C)N)cc1F (stereo not shown) [Example 56] |
| 3.2 | CC#CCOc1ccc(C(=O)N[C@H](C(=O)NO)C(C)(C)NC)cc1 [Example 59] |
| 14 | CC(C)(N)[C@H](NC(=O)c1ccc(OCC#CC2=CCNCC2)cc1)C(=O)NO [Example 62] |
| 0.05 | CC(C)(C)C#C/C=C/COc1ccc(C(=O)N[C@H](C(=O)NO)C(C)(C)N)cc1 [Example 63] |
| 0.2 | CCCCC#C/C=C/COc1ccc(C(=O)N[C@H](C(=O)NO)C(C)(C)N)cc1 [Example 64] |
| 1240 | Cc1ccc(C#CCOc2ccc(C(=O)N[C@H](C(=O)NO)C(C)(C)N)cc2)cc1 [Example 66] |

Same assay, conditions: IC50 (LpxC inhibitory activity), 1 nM P. aeruginosa LpxC, 30 min pre-incubation, 2 μM UDP-3-O-(R-3-hydroxydecanoyl)-GlcNAc, pH 7.5, room temperature

| Compound | IC50 [nM] |
| --- | --- |
| CC#CCOc1ccc(C(=O)N[C@H](C(=O)NO)[C@H](N)C2CC2)cc1 [Example 5, N-((1R,2S)-1-amino-1-cyclopropyl-3-(hydroxyamino)-3-oxopropan-2-yl)-4-(but-2-ynyloxy)benzamide] | 124 |
| CC#CCOc1ccc(C(=O)N[C@H](C(=O)NO)[C@@H](N)C(F)(F)F)cc1 [Example 6, N-((2S,3R)-3-amino-4,4,4-trifluoro-1-(hydroxyamino)-1-oxobutan-2-yl)-4-(but-2-ynyloxy)benzamide] | 13.5 |
| CC#CCOc1ccc(C(=O)N[C@H](C(=O)NO)[C@@H](C)N)cc1 [Example 16] | 8.7 |
| CC#CCOc1ccc(C(=O)N[C@@H](C(=O)NO)[C@@H](N)C(C)C)cc1 [Example 26] | 70 |
| CC#CCOc1ccc(C(=O)N[C@H](C(=O)NO)[C@H](N)C(C)C)cc1 [Example 33] | 268 |
